Assay: TABLE 1
Source text: Table printed on a drawing sheet, TABLE 1
The patent's description of the figure: FIGS. 1A, 1B, 1C, 2A, 2B, 2C, 3A, 3B AND 3C SHOW INTENSITY/RETENTION TIME CURVES FOR VARIOUS PRODUCTS.

| SMILES | t1/2 [h] | % intact after 6 h [%] |
| --- | --- | --- |
| CC(C)[Si](F)(c1ccc(CCCO)cc1)C(C)C [4c - F] | > 100.0 |  |
| CC(C)[Si](F)(c1cccc(CCOC2CCCCO2)c1)C(C)C (racemic) [3e - F] | > 100.0 | > 95 |
| CC(C)[Si](F)(c1cccc(CCCOC2CCCCO2)c1)C(C)C (racemic) [3d - F] | > 100.0 | > 95 |
